This note sets out measurements from patent US8987216B2, “Polysulfated glycosides and salts thereof” (Teva Hungary Pharmaceutical Marketing Private Limited …, priority 2004, dated 2015).

For one data set, the target named is T1, IP-3 receptor (Rattus norvegicus, UniProt P29994).
T1 construct: determined using rat cerebellum membrane preparations; from tissue; host or cells: rat cerebellum (microsomal membrane preparation)
Description: IP-3 receptor antagonistic effect: inhibition of IP3 binding to its receptor in rat cerebellum membrane preparations. How it is done:
Glycosides of the present invention, depending on their chemical structure, inhibit the binding of inositol-1,4,5-trisphosphate (IP3) to its receptor in microsomal membrane preparations. As IP3 is a messenger molecule playing distinguished role in the activation of different cells, interfering with this function can explain the anti-asthmatic effect of these polysulfated glycosides.
The IP3 antagonist effect of the polysulfated glycosides were determined using rat cerebellum membrane preparations according to Worley et al. (JBC 262, 12132, 1987).

Setting [1] is: read-out: IC 50 (μg/ml) Average ± SEM (n) (converted).

Structures can show the parent of a compound that is named as a salt. Where two headings read alike, the source gives them in different places.

T1 sequence (P29994 whole entry): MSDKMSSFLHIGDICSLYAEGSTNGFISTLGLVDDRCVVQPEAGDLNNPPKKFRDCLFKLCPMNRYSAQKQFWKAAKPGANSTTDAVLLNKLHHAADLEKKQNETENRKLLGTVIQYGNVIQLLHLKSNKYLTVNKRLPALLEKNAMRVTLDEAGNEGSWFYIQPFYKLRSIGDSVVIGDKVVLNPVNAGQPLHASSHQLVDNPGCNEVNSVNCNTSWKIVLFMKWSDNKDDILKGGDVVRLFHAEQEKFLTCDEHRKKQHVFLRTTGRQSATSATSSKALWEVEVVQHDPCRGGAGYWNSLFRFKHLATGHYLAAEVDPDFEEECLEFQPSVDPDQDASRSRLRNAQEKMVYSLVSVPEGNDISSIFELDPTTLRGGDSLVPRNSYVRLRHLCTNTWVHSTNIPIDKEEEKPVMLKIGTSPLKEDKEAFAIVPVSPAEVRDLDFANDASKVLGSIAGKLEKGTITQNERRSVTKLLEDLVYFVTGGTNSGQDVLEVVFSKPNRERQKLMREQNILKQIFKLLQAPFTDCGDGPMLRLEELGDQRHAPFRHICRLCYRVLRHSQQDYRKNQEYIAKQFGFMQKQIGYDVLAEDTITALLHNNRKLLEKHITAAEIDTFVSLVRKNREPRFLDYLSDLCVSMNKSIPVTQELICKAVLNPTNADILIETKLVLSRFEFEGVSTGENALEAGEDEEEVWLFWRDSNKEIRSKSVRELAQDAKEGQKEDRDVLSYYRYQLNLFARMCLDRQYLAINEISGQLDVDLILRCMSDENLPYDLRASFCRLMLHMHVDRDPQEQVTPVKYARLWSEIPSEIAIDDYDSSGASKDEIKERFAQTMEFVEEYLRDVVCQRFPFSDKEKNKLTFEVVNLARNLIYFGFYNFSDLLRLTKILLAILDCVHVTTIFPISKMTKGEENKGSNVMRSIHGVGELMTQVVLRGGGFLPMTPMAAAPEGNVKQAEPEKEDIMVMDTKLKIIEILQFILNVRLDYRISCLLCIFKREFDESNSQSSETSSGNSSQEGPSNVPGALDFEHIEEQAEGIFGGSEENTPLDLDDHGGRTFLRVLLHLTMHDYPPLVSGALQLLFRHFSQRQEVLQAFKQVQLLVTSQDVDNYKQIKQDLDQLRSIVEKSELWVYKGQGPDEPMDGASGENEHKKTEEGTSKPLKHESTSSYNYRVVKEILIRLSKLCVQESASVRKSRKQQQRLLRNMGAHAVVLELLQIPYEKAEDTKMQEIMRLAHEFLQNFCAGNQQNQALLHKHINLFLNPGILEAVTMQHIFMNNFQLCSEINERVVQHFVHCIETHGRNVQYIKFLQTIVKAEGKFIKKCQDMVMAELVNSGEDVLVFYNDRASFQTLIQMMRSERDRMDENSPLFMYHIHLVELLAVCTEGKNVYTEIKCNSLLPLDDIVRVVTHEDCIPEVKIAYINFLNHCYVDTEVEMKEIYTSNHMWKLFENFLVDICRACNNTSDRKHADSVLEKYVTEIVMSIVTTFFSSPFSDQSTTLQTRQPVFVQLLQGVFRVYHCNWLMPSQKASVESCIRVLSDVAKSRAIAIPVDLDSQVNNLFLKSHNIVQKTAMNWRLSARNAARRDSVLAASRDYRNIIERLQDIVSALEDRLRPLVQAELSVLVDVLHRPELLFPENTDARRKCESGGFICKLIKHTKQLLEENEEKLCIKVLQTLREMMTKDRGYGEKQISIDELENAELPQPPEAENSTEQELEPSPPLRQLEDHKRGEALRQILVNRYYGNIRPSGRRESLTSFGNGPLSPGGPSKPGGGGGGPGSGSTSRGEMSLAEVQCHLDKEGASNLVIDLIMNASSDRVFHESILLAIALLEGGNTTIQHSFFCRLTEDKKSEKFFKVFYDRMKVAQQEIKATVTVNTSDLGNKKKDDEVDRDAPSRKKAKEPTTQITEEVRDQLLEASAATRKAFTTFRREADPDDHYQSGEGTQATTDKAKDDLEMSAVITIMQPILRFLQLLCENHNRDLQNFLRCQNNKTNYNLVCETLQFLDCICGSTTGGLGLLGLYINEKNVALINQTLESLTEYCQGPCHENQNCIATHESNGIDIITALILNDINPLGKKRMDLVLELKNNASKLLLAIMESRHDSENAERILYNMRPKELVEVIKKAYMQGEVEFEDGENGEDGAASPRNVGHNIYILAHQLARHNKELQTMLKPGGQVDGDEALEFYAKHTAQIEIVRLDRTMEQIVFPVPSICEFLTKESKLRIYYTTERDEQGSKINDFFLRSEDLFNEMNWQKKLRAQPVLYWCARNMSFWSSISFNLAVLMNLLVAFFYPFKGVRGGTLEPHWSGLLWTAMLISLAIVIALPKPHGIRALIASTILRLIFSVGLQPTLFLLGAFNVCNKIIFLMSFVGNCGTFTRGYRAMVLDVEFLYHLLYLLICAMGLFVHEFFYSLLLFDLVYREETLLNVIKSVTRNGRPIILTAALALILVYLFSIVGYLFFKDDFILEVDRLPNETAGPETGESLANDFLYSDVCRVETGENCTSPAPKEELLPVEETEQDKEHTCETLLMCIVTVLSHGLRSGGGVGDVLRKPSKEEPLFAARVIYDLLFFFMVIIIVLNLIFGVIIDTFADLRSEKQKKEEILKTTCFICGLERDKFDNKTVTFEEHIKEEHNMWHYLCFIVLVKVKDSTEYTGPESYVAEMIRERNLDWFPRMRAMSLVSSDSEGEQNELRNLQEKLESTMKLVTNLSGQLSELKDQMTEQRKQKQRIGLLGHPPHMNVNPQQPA

`CO[C@@H]([C@H](OC)[C@@H](COS(=O)(=O)O)OS(=O)(=O)O)[C@@H](CO[C@@H]1O[C@H](CO[C@@H]2O[C@H](COS(=O)(=O)O)[C@@H](OS(=O)(=O)O)[C@H](OS(=O)(=O)O)[C@H]2OS(=O)(=O)O)[C@@H](OS(=O)(=O)O)[C@H](OS(=O)(=O)O)[C@H]1OS(=O)(=O)O)OS(=O)(=O)O` [Example 14, 3,4-di-O-methyl-2,5,6-tri-O-sulfato-1-O-(2,3,4,2′,3′,4′,6′-hepta-O-sulfato-β-gentiobiopyranosyl)-D-mannitol deca potassium salt]: the values for the IC50 on IP-3 receptor (read-out: Average IC50) and at IP-3 receptor (setting [1]) were 6100 nM and 7830 nM, respectively.

In the case of `O=S(=O)(O)OCC(OS(=O)(=O)O)C(OC1OC(COS(=O)(=O)O)C(OS(=O)(=O)O)C(OS(=O)(=O)O)C1OS(=O)(=O)O)C(OS(=O)(=O)O)C(COS(=O)(=O)O)OS(=O)(=O)O` (as salt: potassium) [Example 6, 1,2,3,5,6-penta-O-sulfato-4-O-(2,3,4,6-tetra-β-sulfato-β-D-glucopyranosyl)-D-glucitol nona potassium salt], the melting point (commonly the temperature, or range, at which the solid turns liquid) is more than 220 °C.

The compound `O=S(=O)(O)OC[C@H](OS(=O)(=O)O)[C@@H](O[C@@H]1O[C@H](COS(=O)(=O)O)[C@@H](OS(=O)(=O)O)[C@H](OS(=O)(=O)O)[C@H]1OS(=O)(=O)O)[C@H](OS(=O)(=O)O)[C@@H](COS(=O)(=O)O)OS(=O)(=O)O` (as salt: potassium) [Example 4, 1,2,4,5,6-penta-O-sulfato-3-O-(2,3,4,6-tetra-β-sulfato-β-D-glucopyranosyl)-D-glucitol nona potassium salt] registered a melting point of more than 220 °C.

In the case of `O=S(=O)(O)OC[C@H](OS(=O)(=O)O)[C@@H](OS(=O)(=O)O)[C@H](O[C@@H]1O[C@H](COS(=O)(=O)O)[C@H](OS(=O)(=O)O)[C@H](OS(=O)(=O)O)[C@H]1OS(=O)(=O)O)[C@@H](COS(=O)(=O)O)OS(=O)(=O)O` [Example 7, 1,2,3,5,6-penta-O-sulfato-4-O-(2,3,4,6-tetra-O-sulfato-β-D-galactopyranosyl)-D-glucitol nona potassium salt], the IC50 on IP-3 receptor (read-out: Average IC50) is 256 nM; at IP-3 receptor (setting [1]) it was 338 nM.

As to `O=S(=O)(O)OC[C@H]1O[C@@H](OC[C@@H](OS(=O)(=O)O)[C@@H](OS(=O)(=O)O)[C@H](OS(=O)(=O)O)[C@@H](CO[C@@H]2O[C@H](COS(=O)(=O)O)[C@@H](OS(=O)(=O)O)[C@H](OS(=O)(=O)O)[C@H]2OS(=O)(=O)O)OS(=O)(=O)O)[C@H](OS(=O)(=O)O)[C@@H](OS(=O)(=O)O)[C@@H]1OS(=O)(=O)O` [Example 9, 2,3,4,5-tetra-O-sulfato-1,6-bis-O-(2,3,4,6-tetra-O-sulfato-β-D-glucopyranosyl)-D-mannitol dodeca potassium salt], the IC50 was 634 nM at IP-3 receptor (read-out: Average IC50) and 832 nM at IP-3 receptor (setting [1]).

For the compound `O=S(=O)(O)OC[C@H](OS(=O)(=O)O)[C@@H](OS(=O)(=O)O)[C@H](O[C@H]1O[C@H](COS(=O)(=O)O)[C@@H](OS(=O)(=O)O)[C@H](OS(=O)(=O)O)[C@H]1OS(=O)(=O)O)[C@@H](COS(=O)(=O)O)OS(=O)(=O)O` (as salt: potassium) [Example 5, 1,2,3,5,6-penta-O-sulfato-4-O-(2,3,4,6-tetra-O-sulfato-α-D-glucopyranosyl)-D-glucitol nona potassium salt], the melting point is more than 220 °C.

With `O=S(=O)(O)OCC1OC(OCC2OC(OCC(OS(=O)(=O)O)C(OS(=O)(=O)O)C(OS(=O)(=O)O)C(COC3OC(COC4OC(COS(=O)(=O)O)C(OS(=O)(=O)O)C(OS(=O)(=O)O)C4OS(=O)(=O)O)C(OS(=O)(=O)O)C(OS(=O)(=O)O)C3OS(=O)(=O)O)OS(=O)(=O)O)C(OS(=O)(=O)O)C(OS(=O)(=O)O)C2OS(=O)(=O)O)C(OS(=O)(=O)O)C(OS(=O)(=O)O)C1OS(=O)(=O)O` [Example 10, 2,3,4,5-tetra-O-sulfato-1,6-bis-O-(2,3,4,2′,3′,4′,6′-hepta-O-sulfato-β-gentiobiopyranosyl)-D-mannitol octadeca potassium salt], the IC50 on IP-3 receptor (read-out: Average IC50) was 284 nM; on IP-3 receptor (setting [1]), 383 nM.

Compound `O=S(=O)(O)OC[C@H](OS(=O)(=O)O)[C@@H](OS(=O)(=O)O)[C@H](O[C@@H]1O[C@H](COS(=O)(=O)O)[C@H](OS(=O)(=O)O)[C@H](OS(=O)(=O)O)[C@H]1OS(=O)(=O)O)[C@@H](COS(=O)(=O)O)OS(=O)(=O)O` (as salt: potassium) [Example 7, 1,2,3,5,6-penta-O-sulfato-4-O-(2,3,4,6-tetra-O-sulfato-β-D-galactopyranosyl)-D-glucitol nona potassium salt] gave a melting point of more than 220 °C.

Regarding `O=S(=O)(O)OCC(OS(=O)(=O)O)C(OC1OC(COS(=O)(=O)O)C(OS(=O)(=O)O)C(OS(=O)(=O)O)C1OS(=O)(=O)O)C(OS(=O)(=O)O)C(COS(=O)(=O)O)OS(=O)(=O)O` [Example 6, 1,2,3,5,6-penta-O-sulfato-4-O-(2,3,4,6-tetra-β-sulfato-β-D-glucopyranosyl)-D-glucitol nona potassium salt], the results for the IC50 at IP-3 receptor (read-out: Average IC50) and on IP-3 receptor (setting [1]) were 256 nM and 338 nM, respectively.

`O=S(=O)(O)OC[C@H]1O[C@@H](OC[C@@H](OS(=O)(=O)O)[C@@H](OS(=O)(=O)O)[C@H](OS(=O)(=O)O)[C@@H](COS(=O)(=O)O)OS(=O)(=O)O)[C@H](OS(=O)(=O)O)[C@@H](OS(=O)(=O)O)[C@@H]1OS(=O)(=O)O` [Example 1, 2,3,4,5,6-penta-O-sulfato-1-O-(2,3,4,6-tetra-O-sulfato-β-D-glucopyranosyl)-D-mannitol nona potassium salt]: the IC50 at IP-3 receptor (read-out: Average IC50) was 100 nM; on IP-3 receptor (setting [1]), 131 nM.

`O=S(=O)(O)OC[C@H]1O[C@@H](OC[C@H](OS(=O)(=O)O)[C@@H](O[C@@H]2O[C@H](COS(=O)(=O)O)[C@@H](OS(=O)(=O)O)[C@H](OS(=O)(=O)O)[C@H]2OS(=O)(=O)O)[C@H](OS(=O)(=O)O)[C@@H](COS(=O)(=O)O)OS(=O)(=O)O)[C@H](OS(=O)(=O)O)[C@@H](OS(=O)(=O)O)[C@@H]1OS(=O)(=O)O` [Example 8, 2,4,5,6-tetra-O-sulfato-1,3-bis-O-(2,3,4,6-tetra-O-sulfato-β-D-glucopyranosyl)-D-glucitol dodeca potassium salt]: the IC50 on IP-3 receptor (read-out: Average IC50) is 800 nM; at IP-3 receptor (setting [1]) it was 1050 nM.

On to `O=S(=O)(O)OC[C@@H](OS(=O)(=O)O)[C@@H](OS(=O)(=O)O)[C@H](OS(=O)(=O)O)[C@@H](CO[C@H]1OC[C@@H](OS(=O)(=O)O)[C@@H](OS(=O)(=O)O)[C@@H]1OS(=O)(=O)O)OS(=O)(=O)O` [Example 16, 2,3,4,5,6-penta-O-sulfato-1-O-(2,3,4-tri-O-sulfato-α-D-arabinopyranosyl)-D-mannitol octa potassium salt], for which the IC50 on IP-3 receptor (read-out: Average IC50) was 702 nM; on IP-3 receptor (setting [1]), 2020 nM.

Consider `O=S(=O)(O)OC[C@H](OS(=O)(=O)O)[C@@H](OS(=O)(=O)O)[C@H](OS(=O)(=O)O)[C@@H](CO[C@@H]1O[C@H](COS(=O)(=O)O)[C@@H](OS(=O)(=O)O)[C@H](OS(=O)(=O)O)[C@H]1OS(=O)(=O)O)OS(=O)(=O)O` [Example 2, 1,2,3,4,5-penta-O-sulfato-6-O-(2,3,4,6-tetra-O-sulfato-β-D-glucopyranosyl)-D-glucitol nona potassium salt], for which the IC50 was 1410 nM at IP-3 receptor (read-out: Average IC50) and 1870 nM at IP-3 receptor (setting [1]).

In the case of `O=S(=O)(O)OC[C@H](OS(=O)(=O)O)[C@@H](OS(=O)(=O)O)[C@H](O[C@H]1O[C@H](COS(=O)(=O)O)[C@@H](OS(=O)(=O)O)[C@H](OS(=O)(=O)O)[C@H]1OS(=O)(=O)O)[C@@H](COS(=O)(=O)O)OS(=O)(=O)O` [Example 5, 1,2,3,5,6-penta-O-sulfato-4-O-(2,3,4,6-tetra-O-sulfato-α-D-glucopyranosyl)-D-glucitol nona potassium salt], the values for the IC50 at IP-3 receptor (read-out: Average IC50) and on IP-3 receptor (setting [1]) were 263 nM and 347 nM, respectively.

Turning to `O=S(=O)(O)OC[C@H]1O[C@@H](OC[C@H](OS(=O)(=O)O)[C@@H](OS(=O)(=O)O)[C@H](OS(=O)(=O)O)[C@@H](COS(=O)(=O)O)OS(=O)(=O)O)[C@H](OS(=O)(=O)O)[C@@H](OS(=O)(=O)O)[C@@H]1OS(=O)(=O)O` [Example 3, 2,3,4,5,6-penta-O-sulfato-1-O-(2,3,4,6-tetra-O-sulfato-β-D-glucopyranosyl)-D-glucitol nona potassium salt], the IC50 is 405 nM on IP-3 receptor (read-out: Average IC50) and 535 nM on IP-3 receptor (setting [1]).
